Results published in patent US8293916B2, “Diazole derivatives” (Hoffmann-La Roche Inc., priority 2004, dated 2012).
pKi: −log10 of the molar value. Read-outs that look alike come from different tables or passages of the source.

Biological target: T1, human mGlu 5a receptor (Homo sapiens, UniProt P41594)
T1 construct: expressed in transfected cells; host or cells: EBNA cells (transient transfection); cell membrane homogenates
Assay: [3H]MPEP competition binding on membranes of EBNA cells transiently transfected with human mGlu 5a receptor
Procedure: Cell membrane homogenates were stored at −80° C. until the day of assay where upon they were thawed and resuspended and polytronised in 15 mM Tris-HCl, 120 mM NaCl, 100 mM KCl, 25 mM CaCl2, 25 mM MgCl2 binding buffer at pH 7.4 to a final assay concentration of 20 μg protein/well.
Competition experiments were performed with a fixed concentration of [^3H]MPEP (2 nM) and IC50 values of test compounds evaluated using 11 concentrations (0.3-10,000 nM).
Nonspecific binding was measured in the presence of 10 μM MPEP. The radioactivity on the filter was counted (3 min) on a Packard Top-count microplate scintillation counter with quenching correction after addition of 45 μl of microscint 40 (Canberra Packard S.A., Zürich, Switzerland) and shaking for 20 min.
The Ki value is defined by the following formula: Ki=IC50/[1+L/Kd] in which the IC50 values are those concentrations of the compounds tested which cause 50% inhibition of the competing radioligand ([^3H]MPEP). L is the concentration of radioligand used in the binding experiment and the Kd value of the radioligand is empirically determined for each batch of membranes prepared.

[1] = competition with [3H]MPEP (2 nM), 1 h at 4° C., pH 7.4, Ki=IC50/[1+L/Kd]

T1 sequence (P41594 21-1180 isoform P41594-2 limits assumed): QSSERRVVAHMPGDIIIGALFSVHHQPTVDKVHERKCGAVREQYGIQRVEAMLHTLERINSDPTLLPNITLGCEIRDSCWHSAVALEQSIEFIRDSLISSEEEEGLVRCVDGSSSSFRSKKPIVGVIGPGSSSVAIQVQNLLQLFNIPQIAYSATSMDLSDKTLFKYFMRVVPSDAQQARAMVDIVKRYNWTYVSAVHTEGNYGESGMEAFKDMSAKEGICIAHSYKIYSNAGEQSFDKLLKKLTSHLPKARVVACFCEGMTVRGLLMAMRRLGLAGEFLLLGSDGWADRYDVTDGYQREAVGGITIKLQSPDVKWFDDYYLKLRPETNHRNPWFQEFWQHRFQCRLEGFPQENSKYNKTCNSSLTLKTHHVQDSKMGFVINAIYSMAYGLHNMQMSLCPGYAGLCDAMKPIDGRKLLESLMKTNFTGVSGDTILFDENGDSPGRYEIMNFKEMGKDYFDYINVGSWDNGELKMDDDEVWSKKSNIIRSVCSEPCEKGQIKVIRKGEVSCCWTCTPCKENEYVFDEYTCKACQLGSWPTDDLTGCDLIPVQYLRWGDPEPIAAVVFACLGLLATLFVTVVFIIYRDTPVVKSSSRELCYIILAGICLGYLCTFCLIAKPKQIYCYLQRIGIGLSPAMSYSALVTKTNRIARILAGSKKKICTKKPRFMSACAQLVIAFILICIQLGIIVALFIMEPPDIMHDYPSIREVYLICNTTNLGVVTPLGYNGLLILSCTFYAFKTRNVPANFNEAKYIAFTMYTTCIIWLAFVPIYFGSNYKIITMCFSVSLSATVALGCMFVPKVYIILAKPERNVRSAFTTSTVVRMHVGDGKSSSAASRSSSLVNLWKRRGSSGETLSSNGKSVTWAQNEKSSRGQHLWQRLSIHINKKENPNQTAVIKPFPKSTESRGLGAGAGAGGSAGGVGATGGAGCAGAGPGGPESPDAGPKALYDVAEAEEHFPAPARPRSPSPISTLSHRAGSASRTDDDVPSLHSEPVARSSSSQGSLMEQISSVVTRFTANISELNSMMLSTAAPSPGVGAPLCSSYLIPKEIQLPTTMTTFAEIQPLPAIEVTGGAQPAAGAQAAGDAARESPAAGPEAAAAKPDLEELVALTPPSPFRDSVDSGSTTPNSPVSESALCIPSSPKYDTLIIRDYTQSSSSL

Row | SMILES | pKi | pKi [1]
1 | Cc1nc(C#Cc2ccnc(Cl)c2)c(C)n1-c1ccc(C(F)(F)F)cc1 [Example 13, 2-Chloro-4-[2,5-dimethyl-1-(4-trifluoromethyl-phenyl)-1H-imidazol-4-ylethynyl]-pyridine] | 7.85 | –
2 | Cc1c(C#Cc2ccnc(Cl)c2)nn(C)c1-c1ccc(F)cc1 [Example 26, 2-Chloro-4-[5-(4-fluoro-phenyl)-1,4-dimethyl-1H-pyrazol-3-ylethynyl]-pyridine] | – | 8.22
3 | Cc1nc(C#Cc2ccnc(Cl)c2)c(C(F)F)n1-c1ccc(F)cc1 [Example 27, 2-Chloro-4-[5-difluoromethyl-1-(4-fluoro-phenyl)-2-methyl-1H-imidazol-4-ylethynyl]-pyridine] | – | 7.38
